Key:
[1] = test system: Candida albicans (ATCC 10231); assay: Preservative/disinfectant system efficacy testing (log reduction); type: cell-based
Procedure: (§1) The ophthalmic compositions are evaluated in accordance with specific procedures outlined by the US Food & Drug Administration and the International Organization for Standardization for the testing of microbiocidal efficacy.

[2] = test system: Gram-positive bacteria such as Micrococcus luteus, Corynebacterium aquaticum, Corynebacteriumflavescens, Corynebacterium callunae, and Corynebacterium nephredi; conditions: cited from earlier work
[3] = test system: Pseudomonas aeruginosa, Staphylococcus aureus, Serratia marcescens, Candida albicans and Fusarium solani; conditions: biocidal data from Examples 1, 2 and 3
Procedure: as §1

## CCCCC(CC)COCC(O)CO (stereo not shown) [EHOPD, 3-[(2-ethylhexyl)oxy]-1,2-propanediol]
[1]; 1 hr, Table 5A multi-purpose lens care solution, 10% organic soil, disinfectant concentrations as in label
  log reduction C. albicans: 2.1
[1]; 1 hr, phosphate buffered saline, 10% organic soil, concentrations as in label (Table 4)
  log reduction C. albicans: >5.0
[1]; 4 hr, Table 5A multi-purpose lens care solution, 10% organic soil, disinfectant concentrations as in label
  log reduction C. albicans: 2.8
[1]; 4 hr, phosphate buffered saline, 10% organic soil, concentrations as in label (Table 4)
  log reduction C. albicans: >5.0
[1]; EHOPD 0.0001 wt %, 1 hr, borate buffered saline, 10% organic soil
  log reduction C. albicans: 2.3
[1]; EHOPD 0.0001 wt %, 1 hr, phosphate buffered saline, 10% Organic Soil
  log reduction C. albicans: 2.3
[1]; EHOPD 0.0001 wt %, 4 hr, borate buffered saline, 10% organic soil
  log reduction C. albicans: 2.3
[1]; EHOPD 0.0001 wt %, 4 hr, phosphate buffered saline, 10% Organic Soil
  log reduction C. albicans: 2.3
[1]; EHOPD 0.001 wt %, 1 hr, borate buffered saline, 10% organic soil
  log reduction C. albicans: 2.3
[1]; EHOPD 0.001 wt %, 1 hr, phosphate buffered saline, 10% Organic Soil
  log reduction C. albicans: 2.3
[1]; EHOPD 0.001 wt %, 4 hr, borate buffered saline, 10% organic soil
  log reduction C. albicans: 2.3
[1]; EHOPD 0.001 wt %, 4 hr, phosphate buffered saline, 10% Organic Soil
  log reduction C. albicans: 2.3
[1]; EHOPD 0.01 wt %, 1 hr, Table 3A multi-purpose lens care formulation, 10% organic soil
  log reduction C. albicans: 2.0
[1]; EHOPD 0.01 wt %, 1 hr, borate buffered saline, 10% organic soil
  log reduction C. albicans: 2.3
[1]; EHOPD 0.01 wt %, 1 hr, phosphate buffered saline, 10% Organic Soil
  log reduction C. albicans: 2.3
[1]; EHOPD 0.01 wt %, 4 hr, Table 3A multi-purpose lens care formulation, 10% organic soil
  log reduction C. albicans: 2.0
[1]; EHOPD 0.01 wt %, 4 hr, borate buffered saline, 10% organic soil
  log reduction C. albicans: 2.3
[1]; EHOPD 0.01 wt %, 4 hr, phosphate buffered saline, 10% Organic Soil
  log reduction C. albicans: 2.3
[1]; EHOPD 0.1 wt %, 1 hr, Table 3A multi-purpose lens care formulation, 10% organic soil
  log reduction C. albicans: 2.0
[1]; EHOPD 0.1 wt %, 1 hr, borate buffered saline, 10% organic soil
  log reduction C. albicans: 5.4
[1]; EHOPD 0.1 wt %, 1 hr, phosphate buffered saline, 10% Organic Soil
  log reduction C. albicans: 3.8
[1]; EHOPD 0.1 wt %, 4 hr, Table 3A multi-purpose lens care formulation, 10% organic soil
  log reduction C. albicans: 2.0
[1]; EHOPD 0.1 wt %, 4 hr, borate buffered saline, 10% organic soil
  log reduction C. albicans: >5.7
[1]; EHOPD 0.1 wt %, 4 hr, phosphate buffered saline, 10% Organic Soil
  log reduction C. albicans: >5.7
[1]; EHOPD 0.15 wt %, 1 hr, Table 3A multi-purpose lens care formulation, 10% organic soil
  log reduction C. albicans: 2.0
[1]; EHOPD 0.15 wt %, 4 hr, Table 3A multi-purpose lens care formulation, 10% organic soil
  log reduction C. albicans: 2.0
[1]; EHOPD 0.25 wt %, 1 hr, Table 3A multi-purpose lens care formulation, 10% organic soil
  log reduction C. albicans: 2.0
[1]; EHOPD 0.25 wt %, 4 hr, Table 3A multi-purpose lens care formulation, 10% organic soil
  log reduction C. albicans: 2.0
[1]; EHOPD 0.50 wt %, 1 hr, Table 3A multi-purpose lens care formulation, 10% organic soil
  log reduction C. albicans: 2.0
[1]; EHOPD 0.5 wt %, 1 hr, borate buffered saline, 10% organic soil
  log reduction C. albicans: 5.1
[1]; EHOPD 0.5 wt %, 1 hr, phosphate buffered saline, 10% Organic Soil
  log reduction C. albicans: 3.8
[1]; EHOPD 0.50 wt %, 4 hr, Table 3A multi-purpose lens care formulation, 10% organic soil
  log reduction C. albicans: 3.1
[1]; EHOPD 0.5 wt %, 4 hr, borate buffered saline, 10% organic soil
  log reduction C. albicans: >5.7
[1]; EHOPD 0.5 wt %, 4 hr, phosphate buffered saline, 10% Organic Soil
  log reduction C. albicans: >5.7
[1]; EHOPD 0.75 wt %, 1 hr, Table 3A multi-purpose lens care formulation, 10% organic soil
  log reduction C. albicans: 4.2
[1]; EHOPD 0.75 wt %, 4 hr, Table 3A multi-purpose lens care formulation, 10% organic soil
  log reduction C. albicans: >5.5
[1]; EHOPD 1.0 wt %, 1 hr, Table 3A multi-purpose lens care formulation, 10% organic soil
  log reduction C. albicans: >5.5
[1]; EHOPD 1.0 wt %, 4 hr, Table 3A multi-purpose lens care formulation, 10% organic soil
  log reduction C. albicans: >5.5
[2]
  antimicrobial activity (known, in words): exhibit antimicrobial activity against a variety of Gram-positive bacteria
[3]
  biocidal activity (in words): significant activity against all of the microorganisms in the study
